In PubChem BioAssay (NCI):
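Briefly, cells in 96-well plates were exposed to five compound concentrations for 48 h, and endpoints were estimated by linear interpolation. The concentration for 50% growth inhibition is given as GI50. Definition used: TGI = concentration required for complete inhibition of growth.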

What was measured:
Experiment in all cases: NCI anticancer screen, dose series, 48 h
DU-145 prostate = tested on: DU-145 prostate
SK-OV-3 ovarian = tested on: SK-OV-3 ovarian
SW-620 colon = tested on: SW-620 colon
U251 CNS = tested on: U251 CNS
NCI-H460 lung = tested on: NCI-H460 lung
UO-31 renal = tested on: UO-31 renal
MALME-3M melanoma = tested on: MALME-3M melanoma
MOLT-4 leukemia = tested on: MOLT-4 leukemia
CCRF-CEM leukemia = tested on: CCRF-CEM leukemia
SF-268 CNS = tested on: SF-268 CNS

Row | SMILES | TGI (DU-145 prostate) | TGI (SK-OV-3 ovarian) | TGI (SW-620 colon) | TGI (U251 CNS) | TGI (NCI-H460 lung) | TGI (UO-31 renal) | TGI (MALME-3M melanoma) | TGI (MOLT-4 leukemia) | TGI (CCRF-CEM leukemia) | TGI (SF-268 CNS) | GI50 (DU-145 prostate) | GI50 (SK-OV-3 ovarian) | GI50 (NCI-H460 lung) | GI50 (UO-31 renal) | GI50 (MALME-3M melanoma) | GI50 (MOLT-4 leukemia) | GI50 (SF-268 CNS)
1 | CN(C)CCOC(=O)COc1ccc(Cl)cc1 | > 100 µM | > 100 µM | > 100 µM | > 100 µM | > 100 µM | > 100 µM | > 100 µM | > 100 µM | > 100 µM | > 100 µM |  |  |  |  |  |  | 
2 | O=C(Nn1c(-c2ccccc2)nc2ccccc2c1=O)c1ccccn1 | > 100 µM | > 100 µM | > 100 µM | > 100 µM | > 100 µM | > 100 µM | > 100 µM | > 100 µM | > 100 µM | > 100 µM |  |  |  |  |  |  | 
3 | O=C(O)C(CCc1ccccn1)c1ccccc1 (configuration not stated) | > 100 µM | > 100 µM | > 100 µM | > 100 µM | > 100 µM | > 100 µM | > 100 µM | > 100 µM |  | > 100 µM |  |  |  |  |  |  | 
4 | COc1ccc(C(O)c2ccc3c(c2)OCO3)cc1 (configuration not stated) | > 100 µM | > 100 µM | > 100 µM | > 100 µM | > 100 µM | > 100 µM | > 100 µM | > 100 µM | > 100 µM | > 100 µM |  |  |  |  |  |  | 
5 | O=C(c1ccccc1)c1c(C(F)(F)F)n([O-])c2ccccc2[n+]1=O | 4.54 µM |  | > 100 µM | > 100 µM | 5.72 µM | 2.27 µM |  | 0.516 µM | > 100 µM |  |  |  |  |  |  |  | 
6 | CCOC(=O)c1cc2c(OC(C)=O)ccc(OC(C)=O)c2s1 | 17.1 µM | 22.7 µM |  | 10.4 µM | 22.2 µM | 2.76 µM | 3.6 µM | > 24 µM | 5.29 µM | 3.85 µM |  |  |  |  |  |  | 
7 | Cn1c(=O)c2c(-c3ccccc3)onc2n(C)c1=O |  | > 100 µM | > 100 µM | > 100 µM | > 100 µM | > 100 µM | > 100 µM | 81.5 µM | 77.9 µM | > 100 µM |  |  |  |  |  |  | 
8 | CN(CCc1ccc(Cl)c(Cl)c1)[C@H]1CCCC[C@H]1N1CCCC1 | > 100 µM | > 100 µM | > 100 µM | > 100 µM |  | > 100 µM | > 100 µM | > 100 µM |  | > 100 µM |  |  |  |  |  |  | 
9 | Cc1cccc(C(C)(C)C)c1NC(=O)/C(Cc1nc2ccc([N+](=O)[O-])cc2[nH]c1=O)=N/NC(=O)C[N+](C)(C)C | > 100 µM | > 100 µM | > 100 µM | > 100 µM | > 100 µM | > 100 µM | > 100 µM | > 100 µM |  | > 100 µM |  |  |  |  |  |  | 
10 | CCCCC[C@@H]1OCO[C@@]2(C)/C=C(C)/C=C/C(=O)O[C@H]([C@@H](C)[C@@H](O)[C@H](C)[C@@]3(O)C[C@@H](O[C@H]4C[C@@H](O)[C@H](O)[C@@H](C)O4)[C@H](C)[C@@H](C)O3)[C@@H](OC)/C=C/C=C(\C)C[C@@H]1[C@@H]2O (stereo in doubt) | 7.9 µM | 5.38 µM | 6.67 µM | 5.36 µM | 5.3 µM |  | 0.308 µM | 0.809 µM | 0.455 µM | 7.77 µM |  |  |  |  |  |  | 
11 | COc1cc2cc(C(=O)N3CC(CCl)c4c3cc(N)c3ccccc43)[nH]c2cc1OCCN(C)C (configuration not stated) | 0.0246 µM | 0.881 µM |  |  | 8.68 µM | < 0.005 µM |  | 17.4 µM | < 0.005 µM | 0.712 µM |  |  |  |  |  |  | 
12 | CC(=O)O[C@H]1C#C/C=C\C#CC[C@@H]2C(=O)N(C(=O)OC(C)(C)C)[C@@H]12 | 54.8 µM | > 100 µM | > 100 µM | > 78.9 µM | 38.7 µM | 31.2 µM | > 100 µM | > 53.5 µM | 6.77 µM | > 75.2 µM |  |  |  |  |  |  | 
13 | COC(=O)c1sc(=S)sc1SCc1ccccc1CSc1sc(=S)sc1C(=O)OC | > 100 µM | > 100 µM | > 100 µM | > 100 µM | > 100 µM | > 100 µM | > 100 µM | > 100 µM | 87.6 µM | > 100 µM |  |  |  |  |  |  | 
14 | O=C1/C(=C/c2ccccc2)CCc2ccc(Cl)nc21 | 24.4 µM | 73 µM | 18.6 µM | 16 µM | > 64 µM | 20.2 µM | 27.2 µM | 5.93 µM | 5.75 µM | > 64.8 µM |  |  |  |  |  |  | 
15 | O=C1c2[nH]cc(CN3CCNCC3)c2C(=O)c2c1c(O)c1ccccc1c2O | 3.06 µM | 27.7 µM |  |  | > 78.3 µM | 5.96 µM | 13.3 µM | > 20 µM |  | 66.4 µM | 1.67 µM | 5.76 µM | 18.5 µM | 1.7 µM | 6.3 µM | 3.08 µM | 22.9 µM
16 | CC(CCC(=O)O)[C@H]1CCC2[C@H]3C(CC[C@@]21C)[C@@]1(C)CCC(O)C[C@H]1C[C@@H]3O (some centres not stated) | > 100 µM |  | > 100 µM | > 100 µM | > 100 µM | > 100 µM | > 100 µM | > 100 µM | > 100 µM | > 100 µM |  |  |  |  |  |  | 
17 | O=C1NC(=S)N/C1=C/c1ccccc1O | > 100 µM | > 100 µM | > 100 µM | > 100 µM |  | > 100 µM | > 100 µM | > 100 µM | > 100 µM | > 100 µM |  |  |  |  |  |  | 
18 | COc1cccc(NC(=O)CSc2nnc(-c3ccc(N=Cc4ccc(Cl)cc4)cc3)o2)c1 |  | > 100 µM | 37.9 µM | 30.8 µM | 60.6 µM | 32.7 µM | 39.3 µM | 93.3 µM | > 100 µM | 46.3 µM |  |  |  |  |  |  | 
19 | CC[C@]12C=CCN3CCC4(c5cc(N=Nc6ccccc6)c(OC)cc5N(C)[C@H]4[C@@](O)(C(=O)OC)[C@@H]1OC(C)=O)[C@@H]32 (some centres not stated) | 34.9 µM |  | 58.7 µM | 29.4 µM | 33.5 µM | 29.8 µM | 33.5 µM | 34.6 µM |  | 33 µM |  |  |  |  |  |  | 
20 | Cc1cc(Cc2c(F)c(F)c(Cc3cc(C)no3)c(F)c2F)on1 | > 100 µM | > 100 µM |  | > 100 µM |  | > 100 µM | > 100 µM | > 100 µM | > 100 µM | > 100 µM |  |  |  |  |  |  | 
21 | CC1=CC(O)C(O)C2(C)C1CC1OC(=O)C(O)C3C(C)C(O)C4(O)OCC13C42 (configuration not stated) |  | 359 µM | 224 µM | 475 µM | 50 µM | 518 µM | 464 µM | 65.6 µM | 96.9 µM | 444 µM |  |  |  |  |  |  | 
22 | NC(Cc1cc(I)c(O)c(I)c1)C(=O)O (configuration not stated) |  | > 500 µM | > 500 µM | > 500 µM | > 349 µM | > 500 µM | > 500 µM | > 500 µM | > 500 µM | > 500 µM |  |  |  |  |  |  | 
